According to patent US7601717B2, “Pterin analogs” (BioMarin Pharmaceutical Inc., priority 2008, dated 2009):

Legend:
Type in all cases: in vitro ADME
Conditions in all cases: over a 60 minute period, compound remaining
[1] = Stability in human plasma
Method: (§1) The stability of various compounds as disclosed herein was tested in human and rat and in simulated gastric fluid. Each compound was tested over an hour period for concentration of the compound remaining at each time point. The results are shown in FIGS. 3 (human plasma stability), 4 (rat plasma stability), and 5 (simulated gastric fluid stability) for the compounds of Example 2, 3, 4, and 20.

Stability in rat plasma = assay: Stability in rat plasma
Method: as §1

[2] = Stability in simulated gastric fluid
Method: as §1

C[C@H](O)[C@H](O)[C@H]1CNc2nc(N)[nH]c(=O)c2N1C(=O)OCc1ccccc1 (stereo in doubt) [Example 20, 2-Amino-6-(1,2-dihydroxy-propyl)-4-oxo-4,6,7,8-tetrahydro-1H-pteridine-5-carboxylic acid benzyl ester]
high level of stability: stability in human plasma [1] | stability in rat plasma (Stability in rat plasma) | stability in simulated gastric fluid [2]
